Assays:
[1] = test system: Mouse MC3T3-E1 pre-osteoblastic cells; test: pre-osteoblast chemotaxis trans-well assay; format: cell-based; settings: for chemotactic effect of LPA in the presence of inhibitor: inhibitor added together with LPA
Procedure: Mouse MC3T3-E1 pre-osteoblastic cells were seeded into the upper wells of opaque trans-well chambers that had 8.0-micron pores. LPA was added to the growth medium in the lower chamber. The number of cells that migrated through the pores and attached to the underside of the microporous membrane served as a measure of chemotaxis (chemically directed cell migration). Cells were fluorescently labeled with calcein to allow visualization on the undersides of the opaque chambers. Utilizing this assay it was determined that LPA elicited a 6.5 fold increase in pre-osteoblast when compared to cells under control conditions (growth medium in the absence of LPA).

MC3T3-E1 cells = test: global gene expression profiling (Affymetrix mouse whole genome microarrays); format: cell-based; settings: LPA 1.0 μM
Procedure: LPA also modulates the expression of a large set of pre-osteoblast genes linked to development (FIG. 2). MC3T3-E1 cells were grown in the presence or absence of a physiological level of LPA (1.0 μM). After growth of the cells, total RNA was isolated for use in global gene expression profiling. Gene expression was measured utilizing Affymetrix mouse whole genome microarrays. Data were analyzed using a suite of bioinformatics software. […] As shown, genes involved in cell development are the most statistically significant group affected by LPA.

[2] = test system: Mouse MLO-Y4 osteocyte-like cells; test: osteocyte dendrite outgrowth trans-well assay; format: cell-based
Procedure: Data are normalized to untreated control cells.
Among the effects of LPA on pre-osteoblasts is the induction of membrane extensions that resemble osteocyte dendrites. An assay was developed to study the ability of LPA to stimulate the outgrowth of dendritic processes from osteocytes in vitro, FIG. 3. Mouse MLO-Y4 osteocyte-like cells were seeded in the upper wells of opaque trans-well chambers having 1.0-micron pores which prevent the passage of whole cells but allow penetration by membrane extensions. Cells were fluorescently labeled with calcein to allow visualization of dendrites that were extended onto the undersides of the opaque chambers. It was determined that the presence of LPA in the lower chamber lead to a 7-fold increase in osteocyte dendrite outgrowth.
It is postulated that LPA enhances dendrite outgrowth in vivo, which can re-establish the osteocyte mechanosensory network during the regeneration of damaged bone.

[3] = test system: drill-hole defects in the cortex of rat femurs; test: rat femur drill-hole defect healing with PLGA implants (microCT); format: in vivo; settings: PLGA+12.5 μg LPA vs PLGA+2.0 μg rhBMP2; six weeks post-treatment
Text: Defect regions (arrows) are enlarged on the right; dotted lines depict the original defect boarders.
The inventor has shown, using rat models, that LPA enhances skeletal regeneration in vivo. The bone growth stimulatory effects of LPA were compared to those of bone morphogenetic protein 2 (BMP-2), which is an FDA approved osteoinductive additive to bone implants. Referring to FIG. 4, drill-hole defects (3-mm diameter) were introduced into the cortex of rat femurs. Implants were fabricated utilizing poly(DL-lactic-co-glycolic acid) copolymers) (PLGA). The femurs were then implanted with either LPA or a therapeutic amount (2 μg) of BMP-2 and were compared to a non-treated control. Bone healing was measured as the rate of closure of the defect as visualized in living animals by micro-computed tomography (microTC). Implants were designed as follows: PLGA alone; PLGA+12.5 μg LPA; PLGA+2.0 μg rhBMP2.
One preferred combination of the invention is LPA and BMP-2. Utilizing a rat model, the affects of LPA and LPA with BMP-2 were studied. Rat femurs were drilled to introduce a defect as set forth for FIG. 4. Implants were prepared as described above with the addition of an implant having PLGA+2.0 μg rhBMP2+12.5 μg LPA. Each corresponding drill drill-hole was implanted with: A) nothing (control); B) LPA; C) BMP-2 or D) LPA+BMP-2.

Molecule | increase in pre-osteoblast chemotaxis compared to cells under control conditions ([1]; LPA in lower chamber, 8.0-micron pores, control = growth medium in the absence of LPA) [fold] | number of genes regulated in LPA-treated cells (MC3T3-E1 cells) [genes] | increase in osteocyte dendrite outgrowth ([2]; LPA in lower chamber, 1.0-micron pores, normalized to untreated control cells) [fold] | stimulation of dendritogenesis ([2]; each concentration tested) | bone healing (closure of the defect) compared with BMP-2 [3] | chemotactic effect of LPA in the presence of inhibitor [1]
CCCCCCCC/C=C\CCCCCCCC(=O)OC[C@@H](O)COP(=O)([O-])O.[Na+] [LPA, lysophosphatidic acid] | 6.5 | 513 | 7 | significantly stimulated dendritogenesis | stimulatory properties of LPA exceed those of BMP-2 | 
Cc1noc(-c2ccc(CSCCC(=O)O)cc2)c1NC(=O)OC(C)c1ccccc1Cl (stereo not shown) [Ki16425] |  |  |  |  |  | decreased chemotactic effect
pertussis toxin |  |  |  |  |  | decreased chemotactic effect
